Measurements published in patent publication US7723347B2, “Substituted phenylamino-pyrimidines” (Bayer Schering Pharma Aktiengesellschaft, priority 2004, dated 2010).

Assays:
[1] = target: recombinant Rho kinase II (ROKα) (UniProt Q62868); assay: Inhibition of recombinant Rho kinase II (ROKα), 33P uptake into S6 substrate peptide; type: biochemical; details: Rho-kinase-catalyzed uptake of 33P into S6 peptide, 37° C., vs solvent control
Method: (§1) The inhibition of the enzyme is investigated in an in vitro assay with recombinant Rho kinase II. The vessel-relaxing action is determined using phenylephrine-induced contractions of isolated rings of the saphenous artery of rabbits.
Inhibition of Recombinant Rho Kinase II (ROKα)
The activity of Rho kinase is determined by the uptake of ^33P phosphate into a substrate peptide. To this end, commercially available Rho kinase II (Upstate Biotechnology) is pre-incubated at 37° C. in the presence of the S6 phosphate-acceptor peptide with the test substances or a solvent control for 10 min. The kinase reaction is then started by addition of ^33P-labeled ATP. After 20 min at 37° C., the reaction is stopped by addition of H3PO4. Aliquots are pipetted onto filters and the filters are washed and then covered with scintillator. The radioactivity of the ^33P-labeled peptides bound to the filter is measured in a Micro-Beta counter. The IC50 value corresponds to the concentration of a test substance at which the Rho-kinase-catalyzed uptake of ^33P into the peptide is inhibited by 50%, compared to a solvent control.

[2] = system: isolated rings of the saphenous artery of rabbits; assay: Vessel-relaxing action in vitro, phenylephrine-induced contractions of isolated saphenous artery rings; details: Oryctolagus cuniculus; concentration reducing phenylephrine-induced contraction (3×10^−8 g/ml) of rabbit saphenous artery rings by 50%
Method: as §1
Vessel-Relaxing Action In Vitro
Individual 3-mm-wide rings of the isolated saphenous artery of rabbits are introduced into 5 ml organ baths with Krebs-Henseleit solution (37° C., gassed with carbogen). The vessel tone is monitored isometrically and registered. Contractions are induced by addition of 3×10^−8 g of phenylephrine/ml, which is washed out again after 4 min. After a number of control cycles, the rings are pre-incubated with the substance to be examined, with the dosage being increased for each further cycle, and the subsequent contraction is compared to the intensity of the last control contraction. The concentration required to reduce the intensity of the control value by 50% (IC50) is calculated.

Row | Structure (SMILES) | IC50 [1] [nM] | IC50 [2] [nM]
1 | Nc1nc(Nc2ccc(Cc3ccnc4[nH]ccc34)c(F)c2)cc(C(F)(F)F)n1 [Example 8, N^4-[3-Fluoro-4-(1H-pyrrolo[2,3-b]pyridin-4-ylmethyl)phenyl]-6-(trifluoromethyl)pyrimidine-2,4-diamine] | 7 | 86
2 | Cc1c[nH]c2nccc(Nc3ccc(Nc4cc(Cl)nc(N)n4)cc3F)c12 [Example 10, 6-Chloro-N^4-{3-fluoro-4-[(3-methyl-1H-pyrrolo[2,3-b]pyridin-4-yl)amino]phenyl}pyrimidine-2,4-diamine] | 3 | 8
3 | Cc1c[nH]c2nccc(Nc3ccc(Nc4cc(C(F)(F)F)nc(N)n4)cc3F)c12 [Example 11, N^4-{3-Fluoro-4-[(3-methyl-1H-pyrrolo[2,3-b]pyridin-4-yl)amino]phenyl}-6-(trifluoromethyl)pyrimidine-2,4-diamine] | 4 | 3
